Measured values: US20240368092A1, “2,4-Dihydro-3H-1,2,4-Triazol-3-One P2X7 Antagonists” (Breye Therapeutics ApS, priority 2021, published 2024)

Assays:
Format in all cases: cell-based
[1] = target: T1, ratP2X7 (Rattus norvegicus, UniProt Q64663); assay: P2X7 channel calcium-influx assay (Fluo-8, FLIPR TETRA), rat P2X7; settings: HEK-293 cells stably transfected with P2X7; Bz-ATP at EC80; low divalent cation buffer; read-out: ratP2X7 (activity range)
T1 construct: expressed in transfected cells; host or cells: HEK-293
T1 sequence (Q64663 1-595): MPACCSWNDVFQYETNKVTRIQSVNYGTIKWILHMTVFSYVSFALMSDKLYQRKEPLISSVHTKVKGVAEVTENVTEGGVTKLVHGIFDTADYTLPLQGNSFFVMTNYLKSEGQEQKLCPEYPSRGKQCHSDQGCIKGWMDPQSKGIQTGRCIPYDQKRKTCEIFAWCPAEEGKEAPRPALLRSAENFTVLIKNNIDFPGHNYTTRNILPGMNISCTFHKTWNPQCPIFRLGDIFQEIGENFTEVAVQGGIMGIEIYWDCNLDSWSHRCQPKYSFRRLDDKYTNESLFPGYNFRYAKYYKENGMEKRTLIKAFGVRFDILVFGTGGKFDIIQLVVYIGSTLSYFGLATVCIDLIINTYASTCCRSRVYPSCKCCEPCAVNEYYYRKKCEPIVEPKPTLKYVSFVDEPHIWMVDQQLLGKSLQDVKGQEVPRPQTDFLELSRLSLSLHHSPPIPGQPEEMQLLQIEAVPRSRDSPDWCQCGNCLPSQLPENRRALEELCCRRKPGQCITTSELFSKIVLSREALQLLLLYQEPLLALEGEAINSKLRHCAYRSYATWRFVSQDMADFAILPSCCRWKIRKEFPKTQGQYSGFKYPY
Procedure: (§1) Extracellular binding of Bz-ATP to P2X7 receptor opens the channel and allows Ca^2+ influx into the cells. This Ca^2+ entry was measured in HEK-293 cells stably transfected with P2X7 receptor using Screen Quest™ Fluo-8 No Wash Calcium Assay Kit (AAt Bioquest®, cat. 36316). Once inside the cell, the lipophilic blocking groups of Fluo-8 are cleaved by non-specific cell esterases, resulting in a negatively-charged fluorescent dye that stays inside cells. Its fluorescence increases upon binding to calcium. When HEK-293/P2X7 cells are stimulated with Bz-ATP, Ca^2+ enters the cells and the fluorescence of Fluo-8 NW increases. The dye has an absorption spectrum compatible with excitation at 488 nm by argon laser sources and its emission wavelength is in the range of 515-575 nm.
(§2) HEK-293 cells stably transfected with P2X7 receptor were seeded overnight in growth medium at 10,000 to 20,000 cells/well in 384-well plate. 24 hours later, the medium was removed, and the cells were pre-loaded at RT for 1 hour with 20 μL/w of Fluo-8 NW. Then 10 μL/w of test compounds and reference antagonist A438079 at 3×-concentration were injected with the FLIPRTETRA and the kinetic response over a period of five minutes was monitored. A second injection of 15 μL/w of 3× reference activator (Bz-ATP at EC80) was performed with the FLIPR TETRA and the signal of the emitted fluorescence was recorded for additional three minutes. All the experiment was carried out in a Low Divalent Cation Assay Buffer (0.3 mM Ca^2+ and 0 mM Mg^2+). The effect of the test compounds was measured as percent inhibition vs the reference antagonist and IC50 values were calculated accordingly. Here are reported the potency ranges as A, B, C and D, where A is <200 nM; B is 200 nM-1 μM, C is 1-10 μM, D is 10-30 μM.

[2] = target: T2, humanP2X7 (Homo sapiens, UniProt Q99572); assay: P2X7 channel calcium-influx assay (Fluo-8, FLIPR TETRA), human P2X7; settings: HEK-293 cells stably transfected with P2X7; Bz-ATP at EC80; low divalent cation buffer; read-out: humanP2X7 (activity range)
T2 construct: expressed in transfected cells; host or cells: HEK-293
T2 sequence (Q99572 1-595): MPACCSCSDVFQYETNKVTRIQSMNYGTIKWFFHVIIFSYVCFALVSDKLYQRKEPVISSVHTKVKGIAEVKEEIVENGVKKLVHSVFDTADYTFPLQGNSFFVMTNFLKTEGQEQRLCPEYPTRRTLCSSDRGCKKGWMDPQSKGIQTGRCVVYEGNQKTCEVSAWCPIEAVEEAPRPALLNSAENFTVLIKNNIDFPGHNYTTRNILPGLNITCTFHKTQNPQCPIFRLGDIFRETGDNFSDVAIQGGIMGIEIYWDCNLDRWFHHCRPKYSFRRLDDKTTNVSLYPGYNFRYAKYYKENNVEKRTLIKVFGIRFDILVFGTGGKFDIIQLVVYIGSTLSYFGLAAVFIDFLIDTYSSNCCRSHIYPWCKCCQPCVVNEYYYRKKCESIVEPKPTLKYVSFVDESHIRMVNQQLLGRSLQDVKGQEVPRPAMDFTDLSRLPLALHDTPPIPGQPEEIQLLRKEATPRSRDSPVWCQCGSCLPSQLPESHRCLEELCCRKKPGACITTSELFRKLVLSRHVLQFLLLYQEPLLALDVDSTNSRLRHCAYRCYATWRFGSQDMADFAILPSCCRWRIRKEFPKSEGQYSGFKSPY
Procedure: as §1, §2

[3] = target: T3, mouseP2X7 (Mus musculus, UniProt Q9Z1M0); assay: P2X7 channel calcium-influx assay (Fluo-8, FLIPR TETRA), mouse P2X7; settings: HEK-293 cells stably transfected with P2X7; Bz-ATP at EC80; low divalent cation buffer; read-out: mouseP2X7 (activity range)
T3 construct: expressed in transfected cells; host or cells: HEK-293
T3 sequence (Q9Z1M0 1-595): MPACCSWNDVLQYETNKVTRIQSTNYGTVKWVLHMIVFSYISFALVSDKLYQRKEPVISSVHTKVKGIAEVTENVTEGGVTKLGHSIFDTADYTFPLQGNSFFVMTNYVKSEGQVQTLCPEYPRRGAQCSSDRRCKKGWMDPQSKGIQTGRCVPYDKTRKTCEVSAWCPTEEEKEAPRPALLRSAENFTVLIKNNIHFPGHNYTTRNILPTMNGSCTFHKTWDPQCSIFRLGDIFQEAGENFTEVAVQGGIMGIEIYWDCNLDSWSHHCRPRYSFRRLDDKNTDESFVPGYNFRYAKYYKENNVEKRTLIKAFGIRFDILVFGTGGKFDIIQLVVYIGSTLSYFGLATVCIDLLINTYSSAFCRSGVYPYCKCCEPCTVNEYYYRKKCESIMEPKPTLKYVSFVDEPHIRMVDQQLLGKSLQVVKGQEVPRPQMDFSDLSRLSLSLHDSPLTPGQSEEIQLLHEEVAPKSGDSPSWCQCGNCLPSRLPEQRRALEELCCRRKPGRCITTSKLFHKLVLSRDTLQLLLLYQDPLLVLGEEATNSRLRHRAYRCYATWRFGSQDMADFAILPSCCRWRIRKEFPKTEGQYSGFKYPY
Procedure: as §1, §2

[4] = target: T4, human P2X7 channel (Homo sapiens, UniProt Q99572); assay: human P2X7 channel assay by automated patch-clamp (QPatch 16X); settings: HEK-293 cells expressing P2X7; current evoked by 100 microM BzATP; whole-cell, held at -80 mV; read-out: human Q-Patch (activity range)
T4 construct: expressed in transfected cells; host or cells: HEK-293
T4 sequence (Q99572 1-595): T2 sequence (Q99572 1-595)
Procedure: In order to directly monitor the block of P2X7 channel, an electrophysiological assay was developed and implemented on the QPatchl6X automated electrophysiology instrument.
HEK-293 cells expressing the P2X7 channels were cultured in modified EMEM.
72 hours before experiment, 5 million cells were seeded onto T225 flasks. Just before the experiment cells were washed twice, detached from the flask with trypsin-EDTA, re-suspended in the suspension solution and placed on the QPatch 16x.
The compounds (20 mM in a 100% DMSO) stored at −20° C. were prepared the day of the experiment (a first dilution 1:20 in 100% DMSO to prepare a 1 mM stock solution, then a 1 microM solution in external solution+a serial dilution 1:10).
The standard whole-cell voltage clamp experiments were performed at room temperature. From these experiments the multihole technology was used and the data were sampled at 2 KHz.
The intracellular solution contained (mM) 135 CsF, 10 NaCl, 1 EGTA, 10 HEPES, (pH 7.2 with CsOH) whereas the extracellular contained (mM) 145 NaCl, 4 KCl, 0.5 MgCl2, 1 CaCl2, 10 HEPES, 10 Glc (pH 7.4 with NaOH).
After establishment of the seal and the passage in the whole cell configuration, the cells were held at −80 mV. The P2XR7 current was evoked by applying 100 microM of BzATP alone (4 times) and then in the presence increasing concentrations of the compound under investigation (1, 10, 100 and 1000 nM).
The pre-incubation periods 5 to 8 contain increasing concentrations of the compound of interest (1, 10, 100 and 1000 nM), as illustrated in FIGURE (application protocol).
The maximal inward current evoked by BzATP in absence or presence of increasing concentrations of the compounds under investigation was measured and normalized. The potential […] effect was measured as % of control and as IC50 determined fitting the dose-response curves data with the following equation:
Here are reported the potency ranges as A, B, C and D, where A is <10 nM; B is 10 nM-100 nM, C is 0.1-1 μM, D is 1-10 μM.

Row | SMILES | IC50 [1] [nM] | IC50 [2] [nM] | IC50 [3] [nM] | IC50 [4] [nM]
1 | Cn1nc(Cc2c(F)cccc2Cl)n(CC2CCC(C(F)(F)F)CC2)c1=O (centres unmarked) [Example 7, 5-(2-chloro-6-fluorobenzyl)-2-methyl-4-((4-(trifluoromethyl)cyclohexyl)methyl)-2,4-dihydro-3H-1,2,4-triazol-3-one] | < 200 | < 200 | 200 to 1000 | 
2 | O=c1n(CC2CC2)nc(Cc2c(F)cccc2Cl)n1CC1CCC(F)(F)CC1 [Example 43, 5-(2-chloro-6-fluorobenzyl)-2-(cyclopropylmethyl)-4-((4,4-difluorocyclohexyl)methyl)-2,4-dihydro-3H-1,2,4-triazol-3-one] | < 200 | < 200 | < 200 | 10 to 100
3 | Cn1nc(Cc2c(F)cccc2Cl)n(CC2CCC(F)CC2)c1=O (centres unmarked) [Example 6, 5-(2-chloro-6-fluorobenzyl)-4-((4-fluorocyclohexyl)methyl)-2-methyl-2,4-dihydro-3H-1,2,4-triazol-3-one] | < 200 | 200 to 1000 | 200 to 1000 | 
4 | Cn1nc(Cc2ccc(F)cc2Cl)n(Cc2ccc(F)cc2)c1=O [Example 8, 5-(2-chloro-4-fluorobenzyl)-4-(4-fluorobenzyl)-2-methyl-2,4-dihydro-3H-1,2,4-triazol-3-one] | 1000 to 10000 | 1000 to 10000 | 1000 to 10000 | 
5 | Cn1nc(Cc2ccc(F)cc2Cl)n(CC2CCC(F)(F)C2)c1=O (centres unmarked) [Example 10, 5-(2-chloro-4-fluorobenzyl)-4-((3,3-difluorocyclopentyl)methyl)-2-methyl-2,4-dihydro-3H-1,2,4-triazol-3-one] | 200 to 1000 | 10000 to 30000 | 1000 to 10000 | 
6 | Cn1nc(Cc2c(F)cccc2Cl)n(Cc2ccc(F)cc2)c1=O [Example 1, 5-(2-chloro-6-fluorobenzyl)-4-(4-fluorobenzyl)-2-methyl-2,4-dihydro-3H-1,2,4-triazol-3-one] | 200 to 1000 | 1000 to 10000 | 1000 to 10000 | 
7 | Cn1nc(CC2CCC(F)(F)CC2)n(Cc2c(F)cccc2Cl)c1=O [Example 71, 4-[(2-chloro-6-fluorophenyl)methyl]-5-[(4,4-difluorocyclohexyl)methyl]-2-methyl-2,4-dihydro-3H-1,2,4-triazol-3-one] | 200 to 1000 | 200 to 1000 | 1000 to 10000 | 
8 | Cn1nc(Cc2c(F)cccc2Cl)n(CC2CCC(F)(F)C2)c1=O (centres unmarked) [Example 4, 5-(2-chloro-6-fluorobenzyl)-4-((3,3-difluorocyclopentyl)methyl)-2-methyl-2,4-dihydro-3H-1,2,4-triazol-3-one] | 200 to 1000 | 200 to 1000 | 1000 to 10000 | 

The next lines start with the values.

Row | IC50 [1] [nM] | IC50 [2] [nM] | IC50 [3] [nM] | IC50 [4] [nM] | SMILES
9 | < 200 | 1000 to 10000 | 1000 to 10000 | 1000 to 10000 | Cn1nc(Cc2ccccc2F)n(CC2CCCCC2)c1=O [Example 27, 4-(cyclohexylmethyl)-5-(2-fluorobenzyl)-2-methyl-2,4-dihydro-3H-1,2,4-triazol-3-one]
10 | < 200 | 200 to 1000 | 200 to 1000 |  | Cn1nc(Cc2ccc(F)cc2Cl)n(CC2CCCCC2)c1=O [Example 9, 5-(2-chloro-4-fluorobenzyl)-4-(cyclohexylmethyl)-2-methyl-2,4-dihydro-3H-1,2,4-triazol-3-one]
11 | < 200 | 200 to 1000 | 200 to 1000 |  | O=c1n(CC(F)(F)F)nc(Cc2ccccc2Cl)n1CC1CCCCCC1 [Example 54, 5-[(2-chlorophenyl)methyl]-4-(cycloheptylmethyl)-2-(2,2,2-trifluoroethyl)-2,4-dihydro-3H-1,2,4-triazol-3-one]
12 | < 200 | < 200 | 200 to 1000 |  | CCn1nc(Cc2ccccc2Cl)n(CC2CCCCCC2)c1=O [Example 64, 5-[(2-chlorophenyl)methyl]-4-(cycloheptylmethyl)-2-ethyl-2,4-dihydro-3H-1,2,4-triazol-3-one]
13 | < 200 | 200 to 1000 | 200 to 1000 |  | Cn1nc(CC2CCCCCC2)n(Cc2c(F)cccc2Cl)c1=O [Example 59, 4-[(2-chloro-6-fluorophenyl)methyl]-5-(cycloheptylmethyl)-2-methyl-2,4-dihydro-3H-1,2,4-triazol-3-one]
